In patent publication US9446081B2, “Pharmaceutical composition for preventing and treating complications of diabetes containing a traditional oriental medicine extract or a fraction thereof as an active ingredient” (KOREA INSTITUTE OF ORIENTAL MEDICINE, priority 2011, dated 2016):
Converted amounts (≈) assume the structure as drawn.

Tests used:
[1] = molecular target: T1, aldose reductase from lens of SD rat (Rattus norvegicus, UniProt P07943); assay: Inhibiting effect on aldose reductase (AR) activity; format: biochemical, Sprague-Dawley rat
T1 construct: natural aldose reductase from the eyeball of SD rat; from tissue; host or cells: Sprague-Dawley rat lens, homogenised; centrifuged and filtered supernatant
Experimental: Inhibiting effect of the extract of Homonoia riparia Lour. or the fractions (normal-hexane fraction, ethyl acetate fraction, normal-butanol fraction, and water fraction) thereof on aldose reductase activity was investigated in vitro. To obtain natural aldose reductase from the eyeball of SD rat (Sprague-Dawley rat, 250˜280 g) according to the method of Dufrane (1984), 135 mM Na, K-phosphate buffer (pH 7.0), and 10 mM 2-mercaptoethanol were mixed with the extracted lens, which was ground by using a homogenizer and a sonicater. After performing centrifugation at 14,000 rpm for 30 minutes, the supernatant was filtered by using 0.2 μm filter. All the procedures were performed at 4° C. Quantification was performed by Lowry method using BSA as a protein source of the enzyme. The mixture comprising 135 mM Na, K-phosphate buffer (pH 7.0), 100 mM lithium sulfate, 0.03 mM NADPH, 0.04 mM DL-glycealdehyde and 100 μg/ml enzyme mixture was dissolved in 0.1% DMSO, which was distributed to 50 μl of each sample diluted at different concentrations by 50 μl to make the total volume 1 ml, followed by culture for 10 minutes at 37° C. The experimental blank group was added with the mixture excluding 0.04 mM DL-glycealdehyde, and STD was treated with the sample including 135 mM Na, K-phosphate buffer (pH 7.0), 100 mM lithium sulfate, and 50 μl of NADP (0.2˜5 μM). The reaction was terminated by adding 0.3 ml of 0.5 N HCl. 1 ml of 6 M NaOH including 10 mM imidazole was added thereto, followed by reaction at 60° C. for 10 minutes. Then, the conversion of NADP to fluorescent product was measured. The examination was performed in triplicate. The effect was measured by using a spectrofluorophotometric detector (Bio-TEK, Synergy HT, USA) (Ex. 360 nm, Em. 460 nm) and presented as IC50. The extract of Homonoia riparia Lour. was prepared at the concentration of 1 μg/ml, 2.5 μg/ml, or 5 μg/ml. The normal-hexane fraction was prepared at the concentration of 2.5 μg/ml, 5 μg/ml, or 10 μg/ml. The ethyl acetate fraction was prepared at the concentration of 0.5 μg/ml, 1 μg/ml, or 2.5 μg/ml. The normal-butanol fraction was prepared at the concentration of 1 μg/ml, 2.5 μg/ml, or 5.0 μg/ml. The water fraction was prepared at the concentration of 2.5 μg/ml, 5 μg/ml, or 10 μg/ml. As the comparative control group, one of the excellent aldose reductase inhibitors, 3,3-tetramethyleneglutaric acid, was prepared at the concentration of 3.72 μg/ml, 4.66 μg/ml, or 5.59 μg/ml. Then, AR inhibiting effect of each sample was measured.

[2] = molecular target: AGE-BSA cross-linked to collagen (Bos taurus, UniProt P02769); assay: In vitro AGE cross-linking breaking effect (AGE-BSA on collagen-coated plate, ELISA); format: biochemical; settings: 4 hours at 37° C.; for AGE-BSA (%) remaining cross-linked: OD of treated well/untreated well x100
Experimental: 1.0 μg of AGE-BSA was distributed in a collagen-coated 96-well microtitre plate, followed by culture for 4 hours at 37° C. The plate was then washed with PBS containing 0.05% tween three times to eliminate non-conjugated AGE-BSA. Homonoia riparia Lour. The extract of Homonoia riparia Lour. or ALT-711 (4,5-dimethyl-3-(2-oxo-2-phenylethyl)-thiazolium chloride; Alteon Inc., Ramsey, N.J.) known as the AGEs cross-linking breaker was 2-fold diluted serially from the concentration of 1000 μg/ml to 1 μg/ml, which was added to each well (triplicate), followed by culture for 4 hours at 37° C. Upon completion of the culture, each well was washed with PBS containing 0.05% tween three times. To detect the AGE-BSA remaining as cross-linked to collagen, rabbit polyclonal anti-AGE-BSA antibody (MBL international, Woburn, Mass.) diluted at the ratio of 1:250 was distributed in each well, followed by culture for 1 hour at 37° C. One hour later, the plate was washed with PBS containing 0.05% tween three times, to which horseradish peroxidase-linked goat anti-rabbit antibody (Sigma, USA) was applied. Color development was induced by using 3,3′,5,5′-tetramethylbenzidine (TMB) as a substrate and OD450 was measured. Breaking % of AGE-BSA cross-linking was calculated by the following mathematical formula 2. AGE-BSA (%)=OD of sample treated well/OD of sample untreated well×100 [Mathematical Formula 2]

[3] = test system: advanced glycation endproducts production (bovine serum albumin + fructose/glucose); assay: Inhibiting effect on advanced glycation endproducts production (BSA with fructose/glucose, fluorescence); format: biochemical; settings: 14 days at 37° C.
Experimental: Inhibiting effect of the extract of Homonoia riparia Lour. obtained in <Example 1> and each fraction thereof (normal-hexane, ethyl acetate, normal-butanol, or water fraction) obtained in <Example 2> on the advanced glycation endproducts production was investigated in vitro. Bovine serum albumin (BSA, Sigma, USA) was used as a protein source. BSA was added to 50 mM phosphate buffer (pH 7.4) to make the concentration 10 mg/ml. 0.2 M fructose/0.2 M glucose mixed solution was used as a sugar source. The fructose/glucose mixed solution was added to the BSA solution prepared above. The ethanol extract of Homonoia riparia Lour. was prepared at the concentration of 2.5 μg/ml, 5 μg/ml, or 10 μg/ml. The normal-hexane fraction was prepared at the concentration of 10 μg/ml, 25 μg/ml, or 50 μg/ml. The ethyl acetate fraction was prepared at the concentration of 1.25 μg/ml, 2.5 μg/ml, or 5 μg/ml. The normal-butanol fraction was prepared at the concentration of 1.25 μg/ml, 2.5 μg/ml, or 5 μg/ml. The water fraction was prepared at the concentration of 2.5 μg/ml, 5 μg/ml, or 10 μg/ml. All the compounds were dissolved in dimethylsulfoxide (DMSO), to which 15% tween 80 was added. At that time, the final DMSO content was 0.2%. The prepared extract or the fractions thereof were added to the BSA/sugar mixed solution, followed by culture for 14 days at 37° C. At that time, 0.02% sodium azide and antimycotics were added as an anti-bacterial agent and an anti-fungal agent. The BSA/sugar mixed solution was cultured, which was used as the control. The extract or the fractions thereof were used as the blank. In the meantime, aminoguanidine was used as the positive control, which was the index for the effect comparison. Particularly, aminoguanidine was dissolved in distilled water, followed by culture by the same manner as described above at the concentration of 18.5 μg/ml, 37 μg/ml, or 55.5 μg/ml for 14 days. All the culture solutions were prepared 4 of each to minimize error. After 14 days of culture, the amount of the advanced glycation endproducts was measured. The advanced glycation endproducts were fluorescent brown and had physiochemical property suitable for cross-linking, and also had ligands which could be recognized by cell membrane receptors. The amount of the advanced glycation endproducts having the said properties was measured by a microplate reader (Excitation: 350 nm, Emission: 450 nm) to evaluate the inhibiting effect on the advanced glycation endproducts production (Vinson, J. A. et al., J. Nutr. Biochem., 7: 659-663, 1996). Inhibition rate of the advanced glycation endproducts production was calculated by the following mathematical formula 1. […]

Chain of AGE-BSA cross-linked to collagen (P02769 25-607): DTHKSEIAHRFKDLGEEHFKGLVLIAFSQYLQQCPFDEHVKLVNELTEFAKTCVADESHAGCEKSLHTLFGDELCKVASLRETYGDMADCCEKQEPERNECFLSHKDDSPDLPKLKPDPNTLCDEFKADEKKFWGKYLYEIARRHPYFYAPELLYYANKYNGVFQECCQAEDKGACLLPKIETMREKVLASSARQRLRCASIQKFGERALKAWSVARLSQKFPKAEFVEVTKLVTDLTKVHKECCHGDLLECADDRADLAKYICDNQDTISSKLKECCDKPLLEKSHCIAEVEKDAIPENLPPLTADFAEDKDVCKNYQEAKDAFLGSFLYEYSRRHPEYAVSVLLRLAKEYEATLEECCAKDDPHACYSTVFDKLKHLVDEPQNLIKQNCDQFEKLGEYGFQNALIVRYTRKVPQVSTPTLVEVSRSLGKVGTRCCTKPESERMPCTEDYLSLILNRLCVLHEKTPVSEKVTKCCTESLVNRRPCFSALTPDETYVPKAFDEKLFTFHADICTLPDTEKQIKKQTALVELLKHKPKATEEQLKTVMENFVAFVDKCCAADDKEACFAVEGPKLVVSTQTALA

## O=C(O)CC1(CC(=O)O)CCCC1 [3,3-tetramethyleneglutaric acid]
[1]; conc. 3.72 μg/ml
  inhibition at 3.72 µg/mL: 33 ± 4.36%
[1]; conc. 4.66 μg/ml
  inhibition at 4.66 µg/mL: 40.3 ± 1.36%
[1]; conc. 5.59 μg/ml
  inhibition at 5.59 µg/mL: 51.6 ± 0.78%
[1]; rat lens enzyme, read-out: Inhibiting effect (IC50) (μg/ml), aldose reductase (converted)
  IC50: 29.1 µM

## Cc1sc[n+](CC(=O)c2ccccc2)c1C.[Cl-] [ALT-711, 4,5-dimethyl-3-(2-oxo-2-phenylethyl)-thiazolium chloride]
[2]; read-out: IC50 (μg/ml), AGE-BSA cross-linking breaking
  IC50: > 3730 µM
[2]; conc. 10 μg/ml
  AGE-BSA (%) remaining cross-linked: 100.18 ± 18.4%
[2]; conc. 50 μg/ml
  AGE-BSA (%) remaining cross-linked: 100.13 ± 4.42%
[2]; conc. 100 μg/ml
  AGE-BSA (%) remaining cross-linked: 100.21 ± 5.46%
[2]; conc. 1000 μg/ml
  AGE-BSA (%) remaining cross-linked: 51.77 ± 9.54%

## N=C(N)NN [Aminoguanidine]
[3]
  IC50 (μg/ml) 14th day, advanced glycation endproducts production: 52.96 µg/mL (≈ 715 µM)
[3]; conc. 18.5 μg/ml
  Inhibition (%) 14th day: 15.50 ± 1.79%
[3]; conc. 37 μg/ml
  Inhibition (%) 14th day: 33.56 ± 0.51%
[3]; conc. 55.5 μg/ml
  Inhibition (%) 14th day: 52.81 ± 2.81%
